Experimental data as given in US20070128217A1 (priority 2003, published 2007).

Key:
[1] = test system: antibodies in sera from SARS patients (sera 1a, 1b, 2, 6, 37, 62, London, SARS-yellow, SARS-green); format: binding, human; set-up: Binding of serum 6 to linear peptides of protein X1 of SARS-CoV Urbani / Binding of serum 37 to linear peptides of protein X1 of SARS-CoV Urbani / Binding of serum 6 to looped/cyclic peptide (PEPSCAN-ELISA) / Binding of serum 37 to looped/cyclic peptide (PEPSCAN-ELISA) / Binding of serum 37 to looped/cyclic peptides of protein X1 of SARS-CoV Urbani / Binding of serum 6 to linear peptides of protein X2 / Binding of serum 37 to linear peptides of protein X2 / Binding of serum 37 to looped/cyclic peptides of protein X2 of SARS-CoV Urbani / Binding of serum 6 to linear peptides of protein M of SARS-CoV Urbani / Binding of serum 37 to linear peptides of protein M of SARS-CoV Urbani / Binding of serum 6 to looped/cyclic peptides of protein M of SARS-CoV Urbani / Binding of serum 37 to looped/cyclic peptides of protein M of SARS-CoV Urbani / Binding of serum 6 to linear peptides of protein X3 of SARS-CoV Urbani / Binding of serum 37 to linear peptides of protein X3 of SARS-CoV Urbani / Binding of serum 37 to looped/cyclic peptides of protein X3 of SARS-CoV Urbani / Binding of serum 6 to linear peptides of protein X4 of SARS-CoV Urbani / Binding of serum 37 to linear peptides of protein X4 of SARS-CoV Urbani / Binding of serum 37 to looped/cyclic peptides of protein X4 of SARS-CoV Urbani / Binding of serum 6 to linear peptides of protein X5 of SARS-CoV Urbani / Binding of serum 37 to linear peptides of protein X5 of SARS-CoV Urbani / Binding of serum 37 to looped/cyclic peptides of protein X5 of SARS-CoV Urbani / Binding of serum 6 to linear peptides of protein N of SARS-CoV Urbani / Binding of serum 37 to linear peptides of protein N of SARS-CoV Urbani / Binding of serum 6 to linear peptide (PEPSCAN-ELISA) / Binding of serum 1a to looped/cyclic peptides of protein N of SARS-CoV Urbani / Binding of serum 1b to looped/cyclic peptides of protein N of SARS-CoV Urbani / Binding of serum 2 to looped/cyclic peptides of protein N of SARS-CoV Urbani / Binding of serum 6 to looped/cyclic peptides of protein N of SARS-CoV Urbani / Binding of serum 37 to looped/cyclic peptides of protein N of SARS-CoV Urbani / Binding of serum 62 to looped/cyclic peptides of protein N of SARS-CoV Urbani / Binding of serum London to looped/cyclic peptides of protein N of SARS-CoV Urbani / Binding of serum SARS-green to looped/cyclic peptides of protein N of SARS-CoV Urbani: unit not given here
[2] = test system: control sera (pooled serum of ten healthy LUMC hospital workers; commercial negative donor pooled serum from the Dutch bloodbank); format: binding, human; set-up: Binding of Control serum LUMC to linear peptides / Binding of Control serum Blood-bank to linear peptides / Binding of Control serum LUMC to looped peptides / Binding of Control Serum Blood-Bank to Looped peptides / Binding of Control serum LUMC to linear peptides of the protein M of SARS-CoV Urbani / Binding of Control serum Blood-bank to linear peptides of the protein M of SARS-CoV Urbani / Binding of Control serum LUMC to looped peptides of the protein M of SARS-CoV Urbani / Binding of Control Serum Blood-Bank to Looped peptides of the protein M of SARS-CoV Urbani: unit not given here
[3] = test system: rabbit serum obtained by immunizing a rabbit with the SARS-CoV strain Frankfurt 1; format: binding; set-up: Binding of a rabbit serum to linear peptides / Binding of a rabbit serum to looped peptides / Rabbit serum linear peptides / Rabbit serum looped peptides / Binding of a rabbit serum to linear peptides of protein N of SARS-CoV Urbani (Rabbit serum linear peptides) / Binding of a rabbit serum to looped/cyclic peptides of protein N of SARS-CoV Urbani (Rabbit serum looped peptides): unit not given here

| Sequence | Binding of serum 1a to linear peptides of protein X1 of SARS-CoV Urbani [1] | Binding of serum 1a to looped/cyclic peptide (PEPSCAN-ELISA) [1] | Binding of serum 1b to linear peptides of protein X1 of SARS-CoV Urbani [1] | Binding of serum 1b to looped/cyclic peptide (PEPSCAN-ELISA) [1] | Binding of serum 2 to linear peptides of protein X1 of SARS-CoV Urbani [1] | Binding of serum 2 to looped/cyclic peptide (PEPSCAN-ELISA) [1] | Binding of serum 6 to linear peptides of protein X1 of SARS-CoV Urbani [1] | Binding of serum 6 to looped/cyclic peptide (PEPSCAN-ELISA) [1] | Binding of serum 37 to linear peptides of protein X1 of SARS-CoV Urbani [1] | Binding of serum 37 to looped/cyclic peptide (PEPSCAN-ELISA) [1] | Binding of serum 62 to linear peptides of protein X1 of SARS-CoV Urbani [1] | Binding of serum 62 to looped/cyclic peptide (PEPSCAN-ELISA) [1] | Binding of serum London to linear peptides of protein X1 of SARS-CoV Urbani [1] | Binding of serum London to looped/cyclic peptide (PEPSCAN-ELISA) [1] | Binding of Control Serum Blood-Bank to Looped peptides [2] | Binding of Control serum Blood-bank to linear peptides [2] | Binding of Control serum LUMC to linear peptides [2] | Binding of Control serum LUMC to looped peptides [2] | Binding of a rabbit serum to linear peptides [3] | Binding of a rabbit serum to looped peptides [3] | other results |
| --- | --- | --- | --- | --- | --- | --- | --- | --- | --- | --- | --- | --- | --- | --- | --- | --- | --- | --- | --- | --- | --- |
| LLLFVTIYSHLLLVA | 0.7 | 0.5 | 0.5 | 0.3 | 0.6 | 0.4 | 0.3 | 0.2 | 0.5 | 0.5 | 0.4 | 0.4 | 0.2 | 0.2 | 0.5 | 0.4 | 0.4 | 0.5 | 0.1 | 0.5 | Binding of serum SARS-green to linear peptides of protein X1 of SARS-CoV Urbani [1]: 0.0; Binding of serum SARS-green to looped/cyclic peptide (PEPSCAN-ELISA) [1]: 0.2; Binding of serum SARS-yellow to linear peptides of protein X1 of SARS-CoV Urbani [1]: 0.3; Binding of serum SARS-yellow to looped/cyclic peptide (PEPSCAN-ELISA) [1]: 0.4 |
| LLLLFVTIYSHLLLV | 0.7 | 0.5 | 0.5 | 0.3 | 0.8 | 0.5 | 0.4 | 0.3 | 0.5 | 0.6 | 0.4 | 0.6 | 0.2 | 0.2 | 0.6 | 0.5 | 0.6 | 0.5 | 0.1 | 0.5 | Binding of serum SARS-green to linear peptides of protein X1 of SARS-CoV Urbani [1]: 0.3; Binding of serum SARS-green to looped/cyclic peptide (PEPSCAN-ELISA) [1]: 0.2; Binding of serum SARS-yellow to linear peptides of protein X1 of SARS-CoV Urbani [1]: 0.3; Binding of serum SARS-yellow to looped/cyclic peptide (PEPSCAN-ELISA) [1]: 0.5 |
| LLLVAAGMEAQFLYL | 0.9 | 0.6 | 0.8 | 0.5 | 0.6 | 0.6 | 0.5 | 0.3 | 0.6 | 0.7 | 0.6 | 0.7 | 0.2 | 0.2 | 0.5 | 0.6 | 1.0 | 0.7 | 0.2 | 0.5 | Binding of serum SARS-green to linear peptides of protein X1 of SARS-CoV Urbani [1]: 0.1; Binding of serum SARS-green to looped/cyclic peptide (PEPSCAN-ELISA) [1]: 0.5; Binding of serum SARS-yellow to linear peptides of protein X1 of SARS-CoV Urbani [1]: 0.6; Binding of serum SARS-yellow to looped/cyclic peptide (PEPSCAN-ELISA) [1]: 0.6 |
| LLQTLVLKMLHSSSL | – | – | – | – | – | – | – | – | – | – | – | – | – | – | 0.6 | 0.5 | 0.3 | 0.6 | 0.2 | 0.4 | Binding of serum 1a to linear peptides of protein X2 [1]: 0.6; Binding of serum 1a to looped/cyclic peptides of protein X2 of SARS-CoV Urbani [1]: 0.5; Binding of serum 1b to linear peptides of protein X2 [1]: 0.5; Binding of serum 1b to looped/cyclic peptides of protein X2 of SARS-CoV Urbani [1]: 0.5; Binding of serum 2 to linear peptides of protein X2 [1]: 0.3; Binding of serum 2 to looped/cyclic peptides of protein X2 of SARS-CoV Urbani [1]: 0.3; Binding of serum 6 to linear peptides of protein X2 [1]: 0.3; Binding of serum 6 to looped/cyclic peptides of protein X2 of SARS-CoV Urbani [1]: 0.7; Binding of serum 37 to linear peptides of protein X2 [1]: 0.5; Binding of serum 37 to looped/cyclic peptides of protein X2 of SARS-CoV Urbani [1]: 0.4; Binding of serum 62 to linear peptides of protein X2 [1]: 0.5; Binding of serum 62 to looped/cyclic peptides of protein X2 of SARS-CoV Urbani [1]: 0.6; Binding of serum London to linear peptides of protein X2 [1]: 0.4; Binding of serum London to looped/cyclic peptides of protein X2 of SARS-CoV Urbani [1]: 1.1; Binding of serum SARS-green to linear peptides of protein X2 [1]: 0.5; Binding of serum SARS-green to looped/cyclic peptides of protein X2 of SARS-CoV Urbani [1]: 0.3; Binding of serum SARS-yellow to linear peptides of protein X2 [1]: 0.5; Binding of serum SARS-yellow to looped/cyclic peptides of protein X2 of SARS-CoV Urbani [1]: 0.5 |
| LLVAAGMEAQFLYLY | 0.8 | 0.6 | 0.7 | 0.5 | 0.6 | 0.6 | 0.5 | 0.3 | 0.6 | 0.6 | 0.5 | 0.6 | 0.3 | 0.2 | 0.5 | 0.5 | 0.7 | 0.6 | 0.2 | 0.5 | Binding of serum SARS-green to linear peptides of protein X1 of SARS-CoV Urbani [1]: 0.1; Binding of serum SARS-green to looped/cyclic peptide (PEPSCAN-ELISA) [1]: 0.4; Binding of serum SARS-yellow to linear peptides of protein X1 of SARS-CoV Urbani [1]: 0.4; Binding of serum SARS-yellow to looped/cyclic peptide (PEPSCAN-ELISA) [1]: 0.5 |
